# Read-outs that look alike come from different tables or passages of the source.
# What was measured:
# [1] = Assessment of dynamic solubility; format: physicochemical; settings: for FC: crystal transfer (XRPD of solid) / pH of filtrate: 37° C.; for solubility / solubility at 1 h / solubility at 2 h / solubility at 4 h / solubility at 24 h: 37 °C, thermodynamic from solid; for solubility at 1 h / solubility at 2 h / solubility at 4 h / solubility at 24 h: read-out: S: solubility, calculated as free form
# [2] = Text: DVS isotherms were collected on an SMS (Surface Measurement Systems) DVS Intrinsic.
# [3] = Pharmacokinetics of free crystal form A in Beagle dogs; format: in vivo; settings: for MRT last: read-out: MRT0-t; for bioavailability: from average AUC0-t after dose correction, read-out: F (oral bioavailability)
# Description: All the animals in this experiment were randomly divided into 4 groups (3 dogs/sex/group). The animals in the group A, the group B, and the group D were fasted before administration, and the animals in the group C were fasted before the first administration and the last administration. All the animals were fasted for at least 12 h before administration, and food was resumed 4 h after administration. All the animals had free access to water and food during the experiment. The animals in the group A were intravenously injected with the drug at 2 mg/kg, and blood samples were collected from the jugular vein before and 0.033 […], and 24 h after administration. The animals in the group B and the group D received single intragastric administration of the drugs at 2 mg/kg and 20 mg/kg, respectively, and blood samples were collected from the jugular vein before and 0.083 […], and 24 h after administration. […] Blood samples were collected from the jugular vein before the first administration and the seventh administration and 0.083 […], and 24 h after administration. Blood samples were collected from the jugular vein before administration and 0.5 h after administration from the second administration to the sixth administration. The sample collected before the second administration was the sample collected 24 h after the first administration. The blood samples from the animals were collected through the jugular vein, with a blood sample volume of 0.5 mL/time. All collected whole blood samples were placed in centrifuge tubes containing ethylene diamine tetraacetic acid potassium salt (EDTA-K2), and the centrifuge tubes were turned upside down to allow the anticoagulant and blood to be fully mixed. All the samples were placed on wet ice before centrifugation and centrifuged at 1524 g for 10 min to separate plasma. The plasma samples were transferred to new centrifuge tubes and stored at -90° C. to […] until analysis. The drug concentration in the plasma of each Beagle dog was determined by liquid chromatography with tandem mass spectrometry (LC-MS/MS). The obtained plasma concentration data was analyzed by using the pharmacokinetic processing software WinNonlin 8.0 with a non-compartmental model to calculate relevant pharmacokinetic parameters.
# [4] = both sexes, Beagle, dog, plasma, po, 2 mg/kg, i.g. 2 mg/kg single, male/female mean
# [5] = both sexes, Beagle, dog, plasma, po, 6 mg/kg, i.g. 6 mg/kg once a day, seventh administration, male/female mean
# [6] = both sexes, Beagle, dog, plasma, po, 6 mg/kg, i.g. 6 mg/kg, first administration, male/female mean
# [7] = both sexes, Beagle, dog, plasma, po, 20 mg/kg, i.g. 20 mg/kg single, male/female mean
# [8] = both sexes, Beagle, dog, plasma, po, i.g. 2 mg/kg single, male/female mean
# [9] = both sexes, Beagle, dog, plasma, po, i.g. 6 mg/kg once a day, seventh administration, male/female mean
# [10] = both sexes, Beagle, dog, plasma, po, i.g. 6 mg/kg, first administration, male/female mean
# [11] = both sexes, Beagle, dog, plasma, po, i.g. 20 mg/kg single, male/female mean
# [12] = both sexes, beagle, dog, plasma, iv, 2 mg/kg, i.v. 2 mg/kg, male and female, mean
# [13] = both sexes, beagle, dog, plasma, iv, i.v. 2 mg/kg, male and female, mean
smiles,measurement,setting,value
CC[S@@](=N)(=O)C[C@H]1CC[C@H](N(C)c2ncnc3[nH]ccc23)CC1 [Free crystal form A],FC: crystal transfer (XRPD of solid),"[1]; FaSSIF, 1 h",No
same,pH of filtrate,"[1]; FaSSIF, 1 h",6.6
same,FC: crystal transfer (XRPD of solid),"[1]; FaSSIF, 2 h",No
same,pH of filtrate,"[1]; FaSSIF, 2 h",6.6
same,FC: crystal transfer (XRPD of solid),"[1]; FaSSIF, 4 h",No
same,pH of filtrate,"[1]; FaSSIF, 4 h",6.6
same,FC: crystal transfer (XRPD of solid),"[1]; FaSSIF, 24 h",No
same,pH of filtrate,"[1]; FaSSIF, 24 h",6.6
same,FC: crystal transfer (XRPD of solid),"[1]; FeSSIF, 1 h",No
same,pH of filtrate,"[1]; FeSSIF, 1 h",5.3
same,FC: crystal transfer (XRPD of solid),"[1]; FeSSIF, 2 h",No
same,pH of filtrate,"[1]; FeSSIF, 2 h",5.3
same,FC: crystal transfer (XRPD of solid),"[1]; FeSSIF, 4 h",No
same,pH of filtrate,"[1]; FeSSIF, 4 h",5.3
same,FC: crystal transfer (XRPD of solid),"[1]; FeSSIF, 24 h",No
same,solubility,"[1]; H2O and FaSSIF, water, in H2O and FaSSIF",2100 to 2400 µg/mL
same,FC: crystal transfer (XRPD of solid),"[1]; H2O, 1 h",No
same,FC: crystal transfer (XRPD of solid),"[1]; H2O, 2 h",No
same,FC: crystal transfer (XRPD of solid),"[1]; H2O, 4 h",No
same,pH of filtrate,"[1]; H2O, 4 h",6.7
same,FC: crystal transfer (XRPD of solid),"[1]; H2O, 24 h",No
same,solubility,"[1]; SGF and FeSSIF, simulated gastric fluid, in SGF and FeSSIF, sample not fully dissolved",9000 to 10000 µg/mL
same,FC: crystal transfer (XRPD of solid),"[1]; SGF, 1 h",No
same,FC: crystal transfer (XRPD of solid),"[1]; SGF, 2 h",No
same,pH of filtrate,"[1]; SGF, 2 h",5.2
same,FC: crystal transfer (XRPD of solid),"[1]; SGF, 4 h",No
same,pH of filtrate,"[1]; SGF, 4 h",5.2
same,FC: crystal transfer (XRPD of solid),"[1]; SGF, 24 h",No
same,solubility at 1 h,"[1]; fed state simulated intestinal fluid (FeSSIF), fessif, FeSSIF, 1 h",9400 µg/mL
same,solubility at 2 h,"[1]; fed state simulated intestinal fluid (FeSSIF), fessif, FeSSIF, 2 h",9200 µg/mL
same,solubility at 4 h,"[1]; fed state simulated intestinal fluid (FeSSIF), fessif, FeSSIF, 4 h",9400 µg/mL
same,solubility at 24 h,"[1]; fed state simulated intestinal fluid (FeSSIF), fessif, FeSSIF, 24 h",9900 µg/mL
same,solubility at 1 h,"[1]; simulated gastric fluid (SGF), simulated gastric fluid, SGF, 1 h",9000 µg/mL
same,solubility at 2 h,"[1]; simulated gastric fluid (SGF), simulated gastric fluid, SGF, 2 h",8900 µg/mL
same,solubility at 4 h,"[1]; simulated gastric fluid (SGF), simulated gastric fluid, SGF, 4 h",8800 µg/mL
same,solubility at 24 h,"[1]; simulated gastric fluid (SGF), simulated gastric fluid, SGF, 24 h",9100 µg/mL
same,hygroscopicity,[2]; 25° C./80% RH,slight hygroscopicity
same,Crystal transformation after DVS,[2]; XRPD before and after DVS,No
same,AUC(0-t),[3]; [4],8750 ng·h/mL
same,MRT last,[3]; [4],5.37 h
same,AUC(0-t),[3]; [5],26600 ng·h/mL
same,MRT last,[3]; [5],5.12 h
same,AUC(0-t),[3]; [6],30000 ng·h/mL
same,MRT last,[3]; [6],5.49 h
same,AUC(0-t),[3]; [7],101000 ng·h/mL
same,MRT last,[3]; [7],5.2 h
same,bioavailability,"[3]; both sexes, Beagle, dog, plasma, po, i.g. 2 mg/kg single",88%
same,Cmax,[3]; [8],1350 ng/mL
same,Tmax,[3]; [8],1.33 h
same,half-life,[3]; [8],3.89 h
same,Cmax at 7 days,[3]; [9],4540 ng/mL
same,Tmax at 7 days,[3]; [9],0.75 h
same,half-life at 7 days,[3]; [9],4.1 h
same,bioavailability,"[3]; both sexes, Beagle, dog, plasma, po, i.g. 6 mg/kg, first administration",100%
same,Cmax,[3]; [10],4710 ng/mL
same,Tmax,[3]; [10],0.958 h
same,half-life,[3]; [10],4.2 h
same,bioavailability,"[3]; both sexes, Beagle, dog, plasma, po, i.g. 20 mg/kg single",101%
same,Cmax,[3]; [11],13300 ng/mL
same,Tmax,[3]; [11],0.792 h
same,half-life,[3]; [11],4.17 h
same,AUC(0-t),[3]; [12],9940 ng·h/mL
same,MRT last,[3]; [12],4.3 h
same,C0,[3]; [13],4250 ng/mL
same,clearance,[3]; [13],3.4 mL/min/kg
same,half-life,[3]; [13],3.68 h
same,Vd,"[3]; both sexes, beagle, dog, plasma, iv, i.v. 2 mg/kg, male and female, mean, read-out: VdSS",0.939 L/kg
same,drug accumulation,[3]; i.g. 6 mg/kg for 7 consecutive days,No significant drug accumulation
same,male-to-female ratio of AUC0-t,[3]; i.v. 2 mg/kg,0.748
same,male-to-female ratio of C0,[3]; i.v. 2 mg/kg,0.758
same,clinical observation,"[3]; i.v. 2 mg/kg, i.g. 2, 6, 20 mg/kg, before and after administration and blood sampling",no obvious abnormalities were found

# Reference: US20260224573A1, “CRYSTAL FORM OF COMPOUND, AND PREPARATION METHOD AND USE THEREOF” (FELICAMED BIOTECHNOLOGY CO., LTD., priority 2023, published 2026)
